Experiments:
Assay in all cases: radiometric filter-binding kinase assay, Kinase HotSpot
Conditions in all cases: compound 0.5 µM; ATP 10 µM
ULK1 (human) = ULK1 (human) (UniProt O75385)
TAOK2 (human) = TAOK2 (human) (UniProt Q9UL54)
IKBKB (human) = IKBKB (human) (UniProt O14920)
DYRK2 (human) = DYRK2 (human) (UniProt Q92630)
EPHA8 (human) = EPHA8 (human) (UniProt P29322)
CDK9 CCNK (human) = CDK9 CCNK (human) (UniProt O75909+P50750)
MERTK (human) = MERTK (human) (UniProt Q12866)
PIM3 (human) = PIM3 (human) (UniProt Q86V86)
MAP2K2 (human) = MAP2K2 (human) (UniProt P36507)
PRKCH (human) = PRKCH (human) (UniProt P24723)
MINK1 (human) = MINK1 (human) (UniProt Q8N4C8)
TYRO3 (human) = TYRO3 (human) (UniProt Q06418)
Sequence of TYRO3 (human) (Q06418 whole entry, looked up): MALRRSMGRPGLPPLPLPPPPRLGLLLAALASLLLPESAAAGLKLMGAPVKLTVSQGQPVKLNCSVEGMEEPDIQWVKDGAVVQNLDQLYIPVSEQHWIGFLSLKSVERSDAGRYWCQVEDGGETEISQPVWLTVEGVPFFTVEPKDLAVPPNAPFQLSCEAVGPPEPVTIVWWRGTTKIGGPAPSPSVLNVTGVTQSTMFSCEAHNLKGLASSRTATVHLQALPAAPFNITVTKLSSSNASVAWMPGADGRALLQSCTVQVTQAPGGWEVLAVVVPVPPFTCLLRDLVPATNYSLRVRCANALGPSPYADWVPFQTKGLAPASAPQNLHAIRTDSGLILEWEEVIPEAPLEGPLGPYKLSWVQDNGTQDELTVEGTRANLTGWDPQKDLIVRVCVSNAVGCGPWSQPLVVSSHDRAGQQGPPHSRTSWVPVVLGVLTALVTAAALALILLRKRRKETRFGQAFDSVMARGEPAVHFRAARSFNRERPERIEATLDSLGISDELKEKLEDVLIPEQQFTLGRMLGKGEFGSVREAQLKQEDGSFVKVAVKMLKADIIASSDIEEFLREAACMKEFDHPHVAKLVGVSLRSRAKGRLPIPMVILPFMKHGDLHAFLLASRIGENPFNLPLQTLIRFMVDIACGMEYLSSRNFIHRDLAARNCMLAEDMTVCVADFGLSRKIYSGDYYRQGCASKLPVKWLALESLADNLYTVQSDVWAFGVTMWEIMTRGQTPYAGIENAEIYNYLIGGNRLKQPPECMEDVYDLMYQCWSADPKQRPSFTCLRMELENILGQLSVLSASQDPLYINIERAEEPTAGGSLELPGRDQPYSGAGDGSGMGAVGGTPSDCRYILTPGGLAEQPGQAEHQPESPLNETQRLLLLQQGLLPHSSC

CDC42BPA (human) = CDC42BPA (human) (UniProt Q5VT25)
Sequence of CDC42BPA (human) (Q5VT25 whole entry, looked up): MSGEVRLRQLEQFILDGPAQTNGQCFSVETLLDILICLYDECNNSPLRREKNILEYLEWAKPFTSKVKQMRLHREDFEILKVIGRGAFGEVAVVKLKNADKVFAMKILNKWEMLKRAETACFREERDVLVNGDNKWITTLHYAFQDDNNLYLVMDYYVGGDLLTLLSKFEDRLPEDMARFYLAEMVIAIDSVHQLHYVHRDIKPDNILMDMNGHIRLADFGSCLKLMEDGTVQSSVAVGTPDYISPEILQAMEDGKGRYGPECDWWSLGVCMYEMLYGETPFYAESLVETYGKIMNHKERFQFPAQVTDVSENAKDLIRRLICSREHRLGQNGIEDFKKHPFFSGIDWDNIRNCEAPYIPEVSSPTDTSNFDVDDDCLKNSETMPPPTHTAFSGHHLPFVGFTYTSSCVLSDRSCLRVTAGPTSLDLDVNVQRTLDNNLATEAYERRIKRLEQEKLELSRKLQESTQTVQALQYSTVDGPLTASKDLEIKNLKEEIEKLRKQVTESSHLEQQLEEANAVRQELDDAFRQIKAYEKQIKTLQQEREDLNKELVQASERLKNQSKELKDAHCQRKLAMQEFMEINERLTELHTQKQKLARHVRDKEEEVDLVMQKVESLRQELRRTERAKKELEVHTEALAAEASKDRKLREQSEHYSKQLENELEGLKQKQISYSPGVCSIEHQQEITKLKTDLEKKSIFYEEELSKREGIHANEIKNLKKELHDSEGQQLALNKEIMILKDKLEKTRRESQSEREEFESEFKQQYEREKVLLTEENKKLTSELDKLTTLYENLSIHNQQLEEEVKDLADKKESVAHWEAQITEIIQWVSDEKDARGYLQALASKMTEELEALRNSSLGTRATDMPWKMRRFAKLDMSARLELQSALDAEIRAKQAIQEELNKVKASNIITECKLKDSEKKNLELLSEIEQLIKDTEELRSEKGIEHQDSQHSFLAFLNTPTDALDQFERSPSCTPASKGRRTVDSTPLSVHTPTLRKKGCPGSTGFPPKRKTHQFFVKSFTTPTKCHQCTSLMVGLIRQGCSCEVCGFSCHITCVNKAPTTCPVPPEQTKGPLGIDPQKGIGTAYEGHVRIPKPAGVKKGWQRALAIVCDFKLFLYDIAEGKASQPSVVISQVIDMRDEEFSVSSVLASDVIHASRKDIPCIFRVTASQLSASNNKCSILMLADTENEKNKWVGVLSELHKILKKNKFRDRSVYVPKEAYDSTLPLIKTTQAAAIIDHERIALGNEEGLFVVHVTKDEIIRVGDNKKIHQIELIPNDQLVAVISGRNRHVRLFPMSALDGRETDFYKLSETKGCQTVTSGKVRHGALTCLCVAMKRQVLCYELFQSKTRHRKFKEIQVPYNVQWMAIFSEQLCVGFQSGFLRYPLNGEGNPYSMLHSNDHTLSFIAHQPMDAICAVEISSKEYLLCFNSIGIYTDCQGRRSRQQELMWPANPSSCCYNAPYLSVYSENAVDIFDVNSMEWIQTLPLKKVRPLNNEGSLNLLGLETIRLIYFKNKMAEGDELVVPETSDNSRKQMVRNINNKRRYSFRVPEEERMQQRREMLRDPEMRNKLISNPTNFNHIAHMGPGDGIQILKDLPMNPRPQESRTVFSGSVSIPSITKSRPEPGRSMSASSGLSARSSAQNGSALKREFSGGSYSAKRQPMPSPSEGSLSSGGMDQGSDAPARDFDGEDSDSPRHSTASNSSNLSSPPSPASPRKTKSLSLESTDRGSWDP

NEK11 (human) = NEK11 (human) (UniProt Q8NG66)
FER (human) = FER (human) (UniProt P16591)
PRKCG (human) = PRKCG (human) (UniProt P05129)
BRSK2 (human) = BRSK2 (human) (UniProt Q8IWQ3)
DSTYK (human) = DSTYK (human) (UniProt Q6XUX3)
MATK (human) = MATK (human) (UniProt P42679)
INSR (human) = INSR (human) (UniProt P06213)
MARK3 (human) = MARK3 (human) (UniProt P27448)
MYLK2 (human) = MYLK2 (human) (UniProt Q9H1R3)
HCK (human) = HCK (human) (UniProt P08631)
CDK5 CDK5R1 p35 (human) = CDK5 CDK5R1 p35 (human) (UniProt Q00535+Q15078)
HIPK2 (human) = HIPK2 (human) (UniProt Q9H2X6)
EPHA6 (human) = EPHA6 (human) (UniProt Q9UF33)
TGFBR1 (human) = TGFBR1 (human) (UniProt P36897)
MARK4 (human) = MARK4 (human) (UniProt Q96L34)
CSNK1D (human) = CSNK1D (human) (UniProt P48730)
PAK7 (human) = PAK7 (human) (UniProt Q9P286)
MAPK13 (human) = MAPK13 (human) (UniProt O15264)
FGR (human) = FGR (human) (UniProt P09769)
CSK (human) = CSK (human) (UniProt P41240)
Sequence of CSK (human) (P41240 whole entry, looked up): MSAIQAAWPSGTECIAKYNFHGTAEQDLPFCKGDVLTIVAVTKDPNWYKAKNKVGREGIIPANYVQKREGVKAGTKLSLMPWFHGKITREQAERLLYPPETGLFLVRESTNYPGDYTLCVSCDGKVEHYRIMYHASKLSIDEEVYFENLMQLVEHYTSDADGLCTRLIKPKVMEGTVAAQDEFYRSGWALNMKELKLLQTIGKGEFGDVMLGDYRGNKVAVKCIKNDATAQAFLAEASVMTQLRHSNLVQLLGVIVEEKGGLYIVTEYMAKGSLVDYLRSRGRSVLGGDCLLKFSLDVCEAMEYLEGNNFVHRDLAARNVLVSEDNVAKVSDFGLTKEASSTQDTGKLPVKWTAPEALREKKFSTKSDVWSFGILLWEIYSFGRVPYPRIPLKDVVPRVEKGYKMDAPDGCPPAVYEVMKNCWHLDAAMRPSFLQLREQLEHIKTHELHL

STK11 (human) = STK11 (human) (UniProt Q15831)
RPS6KB2 (human) = RPS6KB2 (human) (UniProt Q9UBS0)
Sequence of RPS6KB2 (human) (Q9UBS0 whole entry, looked up): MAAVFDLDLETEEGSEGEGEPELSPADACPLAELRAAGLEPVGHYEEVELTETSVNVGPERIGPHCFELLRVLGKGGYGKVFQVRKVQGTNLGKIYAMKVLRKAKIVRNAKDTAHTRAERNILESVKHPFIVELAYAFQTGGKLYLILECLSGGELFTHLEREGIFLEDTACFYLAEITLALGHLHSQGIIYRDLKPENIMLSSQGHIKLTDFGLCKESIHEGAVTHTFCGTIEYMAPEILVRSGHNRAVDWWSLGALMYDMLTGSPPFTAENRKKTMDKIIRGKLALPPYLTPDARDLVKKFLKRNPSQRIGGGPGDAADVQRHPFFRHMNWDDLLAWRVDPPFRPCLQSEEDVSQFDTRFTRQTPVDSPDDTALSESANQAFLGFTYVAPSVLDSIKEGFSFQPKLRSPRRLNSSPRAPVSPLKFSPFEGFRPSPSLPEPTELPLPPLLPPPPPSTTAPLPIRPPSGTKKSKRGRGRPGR

ACVR1 (human) = ACVR1 (human) (UniProt Q04771)
EPHB1 (human) = EPHB1 (human) (UniProt P54762)
MAP3K10 (human) = MAP3K10 (human) (UniProt Q02779)
PRKCD (human) = PRKCD (human) (UniProt Q05655)
Sequence of PRKCD (human) (Q05655 whole entry, looked up): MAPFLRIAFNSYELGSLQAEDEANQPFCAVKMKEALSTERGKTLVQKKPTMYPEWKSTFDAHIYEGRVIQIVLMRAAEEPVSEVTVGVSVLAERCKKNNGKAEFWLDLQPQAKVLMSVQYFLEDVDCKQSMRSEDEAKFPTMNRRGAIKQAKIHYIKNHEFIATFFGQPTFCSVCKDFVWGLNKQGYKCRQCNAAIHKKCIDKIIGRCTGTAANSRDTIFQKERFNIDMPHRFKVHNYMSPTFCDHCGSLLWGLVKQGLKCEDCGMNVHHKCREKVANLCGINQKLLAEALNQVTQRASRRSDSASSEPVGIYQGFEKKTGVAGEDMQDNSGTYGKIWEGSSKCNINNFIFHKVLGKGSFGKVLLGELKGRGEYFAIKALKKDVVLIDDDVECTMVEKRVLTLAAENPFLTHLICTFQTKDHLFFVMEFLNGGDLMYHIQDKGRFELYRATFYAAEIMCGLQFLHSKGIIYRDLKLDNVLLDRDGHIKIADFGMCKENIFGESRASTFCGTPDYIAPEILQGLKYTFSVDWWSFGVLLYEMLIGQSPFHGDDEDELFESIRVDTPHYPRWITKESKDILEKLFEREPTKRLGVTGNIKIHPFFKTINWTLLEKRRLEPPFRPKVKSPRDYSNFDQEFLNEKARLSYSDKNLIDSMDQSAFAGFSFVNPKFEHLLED

ABL2 (human) = ABL2 (human) (UniProt P42684)
EPHB4 (human) = EPHB4 (human) (UniProt P54760)
NUAK2 (human) = NUAK2 (human) (UniProt Q9H093)

## O=C1NC(=O)c2c1c1c3ccccc3n3c1c1c2c2ccccc2n1C1CCC3O1
ULK1 (human)
  residual activity: 73.1%
TAOK2 (human)
  residual activity: 57.4%
IKBKB (human)
  residual activity: 97.8%
DYRK2 (human)
  residual activity: 5.94%
EPHA8 (human)
  residual activity: 89.9%
CDK9 CCNK (human)
  residual activity: 15.8%
MERTK (human)
  residual activity: 13.6%
PIM3 (human)
  residual activity: 0.238%
MAP2K2 (human)
  residual activity: 87.9%
PRKCH (human)
  residual activity: 47.6%
MINK1 (human)
  residual activity: 0.901%
TYRO3 (human)
  residual activity: 55.3%
CDC42BPA (human)
  residual activity: 84%
NEK11 (human)
  residual activity: 60.6%
FER (human)
  residual activity: 5.39%
PRKCG (human)
  residual activity: 32.8%
BRSK2 (human)
  residual activity: 13.6%
DSTYK (human)
  residual activity: 45.5%
MATK (human)
  residual activity: 91.7%
INSR (human)
  residual activity: 17.2%
MARK3 (human)
  residual activity: 8.53%
MYLK2 (human)
  residual activity: 7.76%
HCK (human)
  residual activity: 24.8%
CDK5 CDK5R1 p35 (human)
  residual activity: 23.3%
HIPK2 (human)
  residual activity: 32.6%
EPHA6 (human)
  residual activity: 63.9%
TGFBR1 (human)
  residual activity: 110%
MARK4 (human)
  residual activity: 5.31%
CSNK1D (human)
  residual activity: 93.8%
PAK7 (human)
  residual activity: 64.7%
MAPK13 (human)
  residual activity: 114%
FGR (human)
  residual activity: 30.9%
CSK (human)
  residual activity: 79.7%
STK11 (human)
  residual activity: 50.5%
RPS6KB2 (human)
  residual activity: 35%
ACVR1 (human)
  residual activity: 85.8%
EPHB1 (human)
  residual activity: 80.2%
MAP3K10 (human)
  residual activity: 2.66%
PRKCD (human)
  residual activity: 19%
ABL2 (human)
  residual activity: 68%
EPHB4 (human)
  residual activity: 75.4%
NUAK2 (human)
  residual activity: 52%

## CC(C)N(CCC(=O)c1ccc2ccccc2c1)Cc1ccccc1
ULK1 (human)
  residual activity: 104%
TAOK2 (human)
  residual activity: 96.1%
IKBKB (human)
  residual activity: 101%
DYRK2 (human)
  residual activity: 118%
EPHA8 (human)
  residual activity: 95.9%
CDK9 CCNK (human)
  residual activity: 99.5%
MERTK (human)
  residual activity: 106%
PIM3 (human)
  residual activity: 105%
MAP2K2 (human)
  residual activity: 92.5%
PRKCH (human)
  residual activity: 97.3%
MINK1 (human)
  residual activity: 101%
TYRO3 (human)
  residual activity: 98.9%
CDC42BPA (human)
  residual activity: 99.4%
NEK11 (human)
  residual activity: 105%
FER (human)
  residual activity: 105%
PRKCG (human)
  residual activity: 92.7%
BRSK2 (human)
  residual activity: 103%
DSTYK (human)
  residual activity: 84.9%
MATK (human)
  residual activity: 80.7%
INSR (human)
  residual activity: 107%
MARK3 (human)
  residual activity: 101%
MYLK2 (human)
  residual activity: 100%
HCK (human)
  residual activity: 94.9%
CDK5 CDK5R1 p35 (human)
  residual activity: 103%
HIPK2 (human)
  residual activity: 107%
EPHA6 (human)
  residual activity: 93.3%
TGFBR1 (human)
  residual activity: 92.5%
MARK4 (human)
  residual activity: 89.3%
CSNK1D (human)
  residual activity: 97.6%
PAK7 (human)
  residual activity: 98.5%
MAPK13 (human)
  residual activity: 96.2%
FGR (human)
  residual activity: 94.2%
CSK (human)
  residual activity: 88.5%
STK11 (human)
  residual activity: 94.2%
RPS6KB2 (human)
  residual activity: 94.3%
ACVR1 (human)
  residual activity: 93.6%
EPHB1 (human)
  residual activity: 96.8%
MAP3K10 (human)
  residual activity: 92.6%
PRKCD (human)
  residual activity: 94%
ABL2 (human)
  residual activity: 100%
EPHB4 (human)
  residual activity: 102%
NUAK2 (human)
  residual activity: 85.4%
